System: Delta strain of novel coronavirus
Assay type: in vivo, K18-hACE2 transgenic mice

Structure (SMILES): N#C[C@@]1(c2ccc3c(N)ncnn23)O[C@H](COC(=O)C2CCCCC2)[C@@H](O)[C@H]1O [ATV014]
- viral load in the lungs (antiviral effect) ([…], ATV014 100 mg/kg, Compound 1 150 mg/kg, once daily, intragastric, versus vehicle control): significant antiviral effects
- anti-novel coronavirus effects in the mouse model (conclusion, ATV014 100 mg/kg, Compound 1 150 mg/kg): significant anti-novel coronavirus effects
- reduction of viral load (mouse, in vivo): could reduce the viral load to varying degrees

Source: patent EP4623909A1, “PHARMACEUTICAL COMPOSITION FOR TREATING OR RELIEVING COVID-19 AND FORMULATION COMPRISING SAME” (priority 2022, dated 2024)
